Reference: patent US7052850B2, “Isolated human EDG-4 receptor” (priority 1997, dated 2006)
“Also recorded” adds a separate entry of the source.

Tests used:
HL-60 cells = experiment: IL-8 response in HL-60 cells; format: cell-based, human; settings: 1, 6 or 24 hours, S1P or LPA up to 3 μM, TNF-α 10 ng/ml
293-EBNA cells = experiment: IL-8 production in 293-EBNA cells; format: cell-based; settings: untransfected
[1] = test system: pcDNA3-transfected 293-EBNA cells; experiment: NF-κB luciferase reporter in 293-EBNA cells, empty vector pcDNA3; format: cell-based; settings: empty vector control; S1P, SPC 1-10 μM, LPA 10 μM, 20% FBS
Procedure: • 1) 150 mm plates of 293-EBNA obtained from Invitrogen (Cat. R620-07) with a confluency of 18 80% were used for transfection. • 2) 6.6 μg NF-κB-tk-p4Luc reporter DNA and 6.6 μg of pC3-redg4 (expressing rat EDG-4), or pcDNA3 DNA was diluted in 500 μl OPTI-MEM (Gibco; Cat. 31985-062) • 3) 96.8 μl Lipofectamine (Gibco; Cat. 18324-020) was diluted in 500 μl of OPTI-MEM. • 4) The 2 solutions were mixed gently and the tube was incubated for 30 min at room temperature. • 5) The 293-EBNA plates were washed once with PBS and 13 ml OPTI-MEM was added to each plate, • 6) 6 ml OPTI-UMM was added to each transfection tube and this was added to a plate of 293EBNA cells. The plates were left for 4 hrs at 37° C. in a 5% CO2 incubator. • 7) After 4 his, the media was removed and replaced with frest 10% FBS media. Day 2: • 1) Transfected cells were washed, typsinized with 1× tryspin, resuspended in 10 ml media and counted. • 2) 0.02×10 ^6 cells were plated per well of a 96-well Blackview plate coated with polyD-lysine. No cells were plated in the outside wells of the 96-well plate. Two 96-well plates were seeded for each transfection. Day 3: • 1) Cells were washed with PBS and 140 μl serum-free media (SFM) added to each well. Plates were incubated in 37° C. incubator for 6 hrs. • 2) After 6 hrs, media was removed and cells treated with compounds diluted in 0.5% FBS media (140 μl added to each well). The Following Treatments Were Used: pcDNA3:
Day 4 Luciferase Assay • 1) Luclite kit (Packard; Cat. 6016911) was used for luciferase assay. All reagents were brought to room temperature before use. • 2) Supernatant was transferred to a new 96-well plate and stored at −20 C. for […] IL-8 measurement. • 3) 50 μl 0.5 M HEPES pH 7.8 buffer (1 mM MgCl21 mM CaCl2) was addeded to all wells of 96-well plate. […] A stop plate was placed on top of the blackview plate to keep it in the dark. • 6) Plates were incubated at room temperature for 30 min. • 7) After incubation, plates were counted in a 12 detector Packard Top Count on a program without dark delay. […]

human EDG-3 [2] = biological target: human EDG-3 (Homo sapiens, UniProt Q99500); experiment: SRE luciferase reporter in 293-EBNA cells, human EDG-3; format: cell-based; settings: Assay 3; pancreas clone pC3-E3HP2; 3 μM
Chain of human EDG-3 (Homo sapiens, UniProt Q99500) (Q99500 whole entry): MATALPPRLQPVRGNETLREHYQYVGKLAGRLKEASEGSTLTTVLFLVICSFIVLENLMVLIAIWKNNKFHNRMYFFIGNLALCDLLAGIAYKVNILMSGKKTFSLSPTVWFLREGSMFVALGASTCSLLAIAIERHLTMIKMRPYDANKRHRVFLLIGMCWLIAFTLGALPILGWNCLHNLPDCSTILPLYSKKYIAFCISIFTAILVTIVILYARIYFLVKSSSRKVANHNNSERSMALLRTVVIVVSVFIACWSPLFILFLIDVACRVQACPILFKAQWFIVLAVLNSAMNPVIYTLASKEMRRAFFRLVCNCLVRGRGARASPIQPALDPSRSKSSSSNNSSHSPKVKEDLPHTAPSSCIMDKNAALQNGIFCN
Procedure: (§1) The protocol described in Example 11 for Assay 1 was allowed except for the following changes: • 1) 100 mm plates of 293-EBNA ith a confluency of ˜80% were used for transfection, • 2) SRE Cotransfection: 0.5 μg of 2XSREtk-p4Luc-zeo reporter DNA and 3.5 μg pcDNA3, EDG-1, EDG-3 pC3-hE3P2, different from the clone used in Assay 2 of Example 11) or the newly cloned human EDG-4 (pC3-hedg4#36); NF-κB Cotransfection: 2 μg 6XNFκBtk-p4LUc-zeo reporter DNA and 2.0 μg pcDNA3, EDG-1, EDG-3 (pC3-hE3HP2), or EDG-4 (pC3-hedg4#36). Expression plasmid and reporter plasmid DNA samples were combined and diluted in 750 μl of DMEM/F12 (serum free media) and 20 μl Plus Reagent (Lipofectamine Plus Kit, Life Technologies Cat. 109640-13), and incubated at room temperature for 15 min. • 3) 30 μl Lipofectamine Reagent (Lipofectamine Plus Kit) was diluted in 750 μl DMEM/F12. The diluted Lipofectamine was then combined with the DNA/Plus mixture and incubated at room temperature for 15 min. • 4) The 293-EBNA plates were washed once with PBS and 5 ml DMEM/F12 was added to each plate. • 5) DNA/Plus/Lipofectamine mixture was added to each plate of 293-EBNA cells. […]

human EDG-3 [3] = experiment: NF-κB luciferase reporter in 293-EBNA cells, human EDG-3; format: cell-based; settings: for NF-κB response: original human EDG-3 clone (Assay 2)
Procedure: The above protocol for assay 1 was followed except for the following changes: • 1) 100 mm plates of 293-EBNA with a confluency of ˜80% were used for transfection. • 2) 3 μg NFκB-tk-p4Luc reporter DNA and 3 μg pC3-hedg1, pC3-hedg 3, pC3-redg4, pC3-hedg5 or pcDNA3 DNA was diluted in 240 μl OPTI-MEM (Gibco; Cat. 31985-062) • 3) 22 μl lipofectamine (Gibco; Cat. 1 8324-020) was diluted in 240 μl OPTI-MEM. • 4) The 293-EBNA plates were washed once with PBS and 7 ml OPTI-MEM was added to each plate. • 5) DNA/lipofectamine mixture was added to each plate of 293-EBNA cells. The plates were left for 4 hrs at 37° C. in a 5% CO2 incubator. Day 2: • 1) 0.01×10^6 cells were plated per well of 96-well Blackview plate coated with polyD-lysine. No cells were plated in the outside wells of the 96-well plate. Day 3: The following treatments were used for all transections:
Expression plasmid and reporter plasmid DNA samples were combined and diluted in 750 μl of DMEM/F12 (serum free media) and 20 μl Plus Reagent (Lipofectamine Plus Kit, Life Technologies Cat. 109640-13), and incubated at room temperature for 15 min. • 3) 30 μl Lipofectamine Reagent (Lipofectamine Plus Kit) was diluted in 750 μl DMEM/F12. The diluted Lipofectamine was then combined with the DNA/Plus mixture and incubated at room temperature for 15 min. • 4) The 293-EBNA plates were washed once with PBS and 5 ml DMEM/F12 was added to each plate. • 5) DNA/Plus/Lipofectamine mixture was added to each plate of 293-EBNA cells. The plates were left for 3 hr at 37° C. in a 5% CO2 incubator. • 6) The transfection medium was replaced with serum-free DMEM/F12 for cells transfected with 2XSREtk-p4Luc-zeo reporter DNA and with DMEM/F12 plus 10% FBS for cells transfected with 6XNFκBtk-p4Luc-zeo reporter DNA. • Day 2. • 2) Transfected cells were harvested by trypsinization and 50,000 cells per well were plated in 96-well Blackview plates coated with poly D-lysine Becton Dickinson Labware, Cat. 40640). […]

human EDG-4 = biological target: T1, human EDG-4 (Homo sapiens, UniProt O95136, F273L/I205V); experiment: NF-κB luciferase reporter in 293-EBNA cells, human EDG-4; format: cell-based; settings: Assay 3; pC3-hedg4#36; 3 μM; 6 hours
T1 construct: a 1059 bp open reading frame (excluding the stop codon) corresponding to the complete human edg-4 coding region; expressed in transfected cells; host or cells: 293-EBNA
T1 sequence (O95136 whole entry I205V/F273L): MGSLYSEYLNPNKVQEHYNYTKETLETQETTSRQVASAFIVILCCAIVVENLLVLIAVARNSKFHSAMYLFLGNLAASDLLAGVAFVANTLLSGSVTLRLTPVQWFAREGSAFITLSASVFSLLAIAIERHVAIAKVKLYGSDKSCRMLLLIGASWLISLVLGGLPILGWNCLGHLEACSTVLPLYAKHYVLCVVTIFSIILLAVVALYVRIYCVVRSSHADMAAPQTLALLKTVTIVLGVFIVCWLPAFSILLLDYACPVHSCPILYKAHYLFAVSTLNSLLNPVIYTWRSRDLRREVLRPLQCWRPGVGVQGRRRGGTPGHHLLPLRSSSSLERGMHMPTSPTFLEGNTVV
Procedure: as §1

| Compound | IL-8 release (HL-60 cells) | IL-8 production (293-EBNA cells) | NF-κB reporter response in pcDNA3-transfected cells [1] | SRE reporter response (human EDG-3 [2]) | NF-κB response (human EDG-3 [3]) | induction of the NF-κB reporter gene (human EDG-4) | induction of the NF-κB reporter gene compared to untreated controls (human EDG-3 [3]; Assay 3, pancreas EDG-3 clone, 3 μM) |
| --- | --- | --- | --- | --- | --- | --- | --- |
| CCCCCCCCCCCCC/C=C/[C@@H](O)[C@@H](N)COP(=O)(O)O [S1P, sphingosine 1-phosphate] | no such release; also recorded: fail to produce IL-8 below the cytotoxic threshold | no IL-8 production | No increase in luciferase activity; also recorded: No response; also recorded: No such induction | 12 fold | did not produce a NF-κB response | 4.5 fold | – |
| lysophosphatidic acid [LPA] | no such release | no IL-8 production | no response | – | – | – | – |
| CCCCCCCCCCCCC/C=C/[C@@H](O)[C@@H](N)COP(=O)([O-])OCC[N+](C)(C)C [SPC, sphingosylphosphorylcholine] | – | – | No response; also recorded: No such induction | 11 fold | did not produce a NF-κB response | 9 fold | about 8 fold |
